Consider 2 compounds from patent publication US4258034A, “Lactobionic acid poly(H-sulfate) and salts thereof useful as complement inhibitors” (American Cyanamid Company, priority 1979, dated 1981).

Each structure is given as a SMILES string. Where a name gives a salt, the structure may show the parent alone.

What all share (conditions): activity in wells, twofold serial dilution assay; higher well number indicates higher activity
One assay has as its system activated human C1. As to the kind of experiment: Test Code 026 (C1 inhibitor). Type of assay: biochemical. From the text:
(§1) An active inhibitor protects C2 from C1 and C4; (ii) Test Code 035 (C3-C9 inhibitor)--This test determines the ability of the late components of human complement (C3-C9) to lyse EAC 142 in the presence of appropriate dilutions of the test compound. An active inhibitor protects EAC 142 from lysis by human C3-C9; (iii) Test Code 036 (C-Shunt inhibitor)--In this test human erythrocytes rendered fragile are lysed in autologous serum via the shunt pathway activated by cobra venom factor in the presence of appropriate dilutions of the test compound. Inhibition of the shunt pathway results in failure of lysis; (iv) Forssman Vasculitis Test--Here, the well known complement dependent lesion, Forssman vasculitis, is produced in guinea pigs by intradermal injection of rabbit anti-Forssman antiserum. […]

The subject of assay [1] is late components of human complement (C3-C9). Kind of assay: Test Code 035 (C3-C9 inhibitor), lysis of EAC 142. Type of assay: biochemical.
From the text: as §1

The subject of another assay is shunt pathway. Kind of assay: Test Code 036 (C-Shunt inhibitor), lysis of fragile human erythrocytes in autologous serum, cobra venom factor activated. In kind it is cell-based.
From the text: as §1

For the compound `O=C(O)[C@H](OS(=O)(=O)O)[C@@H](OS(=O)(=O)O)[C@H](O[C@@H]1O[C@H](COS(=O)(=O)O)[C@H](OS(=O)(=O)O)[C@H](OS(=O)(=O)O)[C@H]1OS(=O)(=O)O)[C@@H](COS(=O)(=O)O)OS(=O)(=O)O` [Lactobionic acid, octakis (H-sulfate), nonatrimethylamine sa] [Lactobionic acid, octakis (H-sulfate), nonatrimethylamine salt], the “C1 026 Wells” value in the assay on activated human C1 stood at 8 Wells. In addition, the “C-Late 035 Wells” value in assay [1] was determined as 2 Wells. The “Shunt Inhibition 036 Wells” value in the assay on shunt pathway was 4 Wells.

With `O=C(O)[C@H](OS(=O)(=O)O)[C@@H](OS(=O)(=O)O)[C@H](O[C@@H]1O[C@H](COS(=O)(=O)O)[C@H](OS(=O)(=O)O)[C@H](OS(=O)(=O)O)[C@H]1OS(=O)(=O)O)[C@@H](COS(=O)(=O)O)OS(=O)(=O)O` [Lactobionic acid, octakis (H-sulfate) nonasodium salt] [Lactobionic acid, octakis (H-sulfate), nonasodium salt], the “C1 026 Wells” value in the assay with activated human C1 came out at 8 Wells. In addition, the “C-Late 035 Wells” value in assay [1] was 2 Wells. The “Shunt Inhibition 036 Wells” value in the assay on shunt pathway was 5 Wells.
